Reference: patent publication US20120040914A1, “ENHANCING EFFECTIVENESS OF GLIAL CANCER THERAPIES” (priority 2010, published 2012)

Columns and labels:
[1] = system: putative mAR in A172 human glioblastoma cells; conditions: unlabeled DHT as displacer, relative to T-BSA incubated A172 cells
Text: The population histograms depict the frequency distribution of the cells labeled with a fluorescently tagged, BSA-conjugated testosterone (Testosterone-BSA-FITC, abbreviated as T-BSA), or T-BSA in the presence of unlabeled DHT, serving as the “displacer”. […] Also note that the x-axis is on a log scale.

[2] = system: Temozolomide-resistant T98g human glioblastoma cells; assay: sensitivity to ionizing radiation, Calcein-am assay; type: cell-based
hippocampal HT-22 cells = assay: glutamate-induced cytotoxicity, Calcein-am assay; type: cell-based
[3] = system: A172 human glioblastoma cells; assay: sensitivity to ionizing radiation, Calcein-am assay; type: cell-based; conditions: total dose of 5 Gy at 6.3 Gy/min, 6 hrs after radiation
Procedure: Cell viability was measured using the Calcein-am assay following 6 hrs after the administration of the dose of ionizing radiation. The data are presented as a percentage of cell viability seen in the non-radiated (black bars) or radiated (checkered bars) in the absence of T-BSA.

C6 glioma cells = assay: salinomycin sensitivity, cell viability by Calcein-am assay; type: cell-based; conditions: 10 microM TBSA, 48 hrs, leftward shift of the concentration response
Procedure: C6 glioma cells were treated with increasing concentrations of the cancer therapeutic, salinamycin, a drug with a high profile of selectivity for cancer stem cells. […] The data are presented as a percentage of cell viability seen in non-TBSA/salinamycin treated cells. The group labeled as Triton-X serves as our cell death-inducing control.

[4] = system: A172 human glioblastoma cell line; assay: cells; conditions: A 172, read-out: reduction in cell viability (calcein fluorescence)

With `C[C@]12CCC(=O)C[C@@H]1CC[C@@H]1[C@@H]2CC[C@]2(C)[C@@H](O)CC[C@@H]12` [DHT, Dihydrotestosterone] the “displacement of Testosterone-BSA-FITC (T-BSA) binding, fluorescence intensity” value [1] was “clear leftward shift of fluorescence intensity”.
With “TBSA: BSA-conjugated testosterone, membrane impermeable androgen, ligand/activator of the membrane androgen receptor (mAR)” the “sensitization to ionizing radiation (cell viability)” value (“sensitization to ionizing radiation” for short) ([2]; 5 Gy, 100 nM-40 microM TBSA, 6 hr or 24 hr post radiation) was “ineffective at sensitizing the cells to ionizing radiation”, the “sensitization to ionizing radiation” value ([2]; 10 Gy) was “effective at sensitizing these cells to ionizing radiation” and the “lowest concentration at which the sensitizing effect was noted” value ([2]; 20 Gy) was 1 µM. The “cell viability, by itself” value (hippocampal HT-22 cells; TBSA alone, Calcein-am assay) was “had no effect on cell viability”, the “effect on glutamate-induced cell death” value (hippocampal HT-22 cells; TBSA plus glutamate) was “protected against glutamate-induced cytotoxicity” and the “sensitization to ionizing radiation” value [3] was “enhanced the sensitivity of the A172 glioblastoma cells to the cytotoxic effects of ionizing radiation”. For the same compound, the “effect on sensitivity to salinamycin (concentration response of cell viability)” value (C6 glioma cells) was “increased the sensitivity of the cells to salinamycin”.
With `Cn1nnc2c(C(N)=O)ncn2c1=O` [TMZ, Temozolomide] the cytotoxicity at 5000 µM [4] was about 35%.
